Source: BindingDB's records for PubMed 39655996 (AstraZeneca)

Target: Poly [ADP-ribose] polymerase 2 (Homo sapiens, UniProt Q9UGN5)
Test: Inhibition of N-terminal 6His-tagged full-length recombinant human PARP2 by fluorescence anisotropy assay

Chain of Poly [ADP-ribose] polymerase 2 (Q9UGN5 whole entry): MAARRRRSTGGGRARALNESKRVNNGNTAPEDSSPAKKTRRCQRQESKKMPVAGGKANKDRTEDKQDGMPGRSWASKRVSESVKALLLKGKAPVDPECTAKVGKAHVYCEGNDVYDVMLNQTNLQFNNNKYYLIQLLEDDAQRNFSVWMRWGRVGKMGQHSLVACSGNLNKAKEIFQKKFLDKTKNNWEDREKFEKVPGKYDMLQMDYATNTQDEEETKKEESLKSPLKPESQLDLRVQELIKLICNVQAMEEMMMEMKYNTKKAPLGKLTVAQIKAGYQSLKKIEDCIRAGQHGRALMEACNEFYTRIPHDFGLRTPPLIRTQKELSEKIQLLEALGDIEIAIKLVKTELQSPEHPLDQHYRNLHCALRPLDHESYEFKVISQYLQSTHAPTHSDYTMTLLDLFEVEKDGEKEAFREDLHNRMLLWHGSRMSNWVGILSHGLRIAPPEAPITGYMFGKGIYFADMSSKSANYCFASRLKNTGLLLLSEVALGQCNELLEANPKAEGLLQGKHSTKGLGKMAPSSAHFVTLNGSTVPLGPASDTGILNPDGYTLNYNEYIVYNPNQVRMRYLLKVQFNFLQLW

CNC(=O)c1ccc(N2CCN(Cc3ccc4nc(C)c(=O)[nH]c4c3F)CC2)c(C)n1 [5-[4-[(5-fluoro-2-methyl-3-oxo-4H-quinoxalin-6-yl)methyl]piperazin-1-yl]-N,6-dimethyl-pyridine-2-carboxamide]
IC50: > 100 µM
